“Also recorded” adds a separate entry of the source.
What was measured:
C57BL/6J mice = assay: Mouse studies: circulating PCSK9, triglycerides, ApoB and hepatic markers; type: in vivo
Method: Liver tissues were fixed in formaldehyde and subsequently embedded in paraffin for sectioning. […] Slides were then exposed to biotin-conjugated secondary antibodies for 45 minutes and then streptavidin peroxidase for 10 minutes. Staining was visualized using the Nova Red HRP Substrate (Vector Laboratories).
Mouse PCSK9 was measured using the Quantikinine® ELISA kit (#MCP900, R&D Systems) and human PCSK9 using the PCSK9 Quantikinine® ELISA kit (#DCP900, R&D Systems). Serum ApoB levels were also quantified using ELISAs (#DAPB00, R&D Systems). Serum samples were diluted as per manufacturer's instructions.
All animal studies were carried out in 8 h-fasted male wild-type, Pcsk9^−/− or Ampkβ1^−/− mice on the C57BL/6J background. CF (25-100 mg/kg-8 h) and CDN (50 mg/kg) treatments were administered via intraperitoneal injection unless specified otherwise. Primary mouse hepatocytes were isolated using a two-step process with EGTA ([…] in HEPES buffer, Sigma Aldrich) and collagenase (0.05% in HEPES buffer, Sigma Aldrich) in 12-week-old male mice on the C57BL/6J background. Cells were then washed, centrifuged, and plated following isolation in cell strainers. Hepatosure® 100-donor pooled primary human hepatocytes were purchased from Xenotech. Primary hepatocytes were regularly grown in William's E medium (Gibco, Thermo Fisher Scientific) containing 10% fetal bovine serum, 100 IU/ml penicillin, and 100 µg/ml streptomycin.
Next, the effect of CF on PCSK9 expression/secretion and ER stress marker expression was assessed in mice. […] Immunohistochemical staining intensities were quantified using ImageJ Software (FIG. 9 E).

PCSK9 = PCSK9 expression in hepatocytes (immunoblot, real-time PCR); type: cell-based, human, mouse
Method: HuH7 and HepG2 cells were routinely grown in complete Dulbecco's Modified Eagle's Medium (Gibco, Thermofisher Scientific) supplemented with 10% fetal bovine serum (Sigma-Aldrich) and 100 U/ml of penicillin and streptomycin (Sigma-Aldrich). […] All cell treatments were carried out for 24 h unless otherwise stated. Cells were transfected with a cocktail consisting of plasmid DNA (1 μg), X-tremeGENE HP (3 μl; Thermofisher Scientific) and opti-MEM (100 μl; Thermofischer Scientific) per 1 ml complete medium containing plated cells. Human PCSK9 was overexpressed using the bicistronic pIRES-EGFP plasmid; calnexin using the mPA-GFP-N1 plasmid. To block the expression of GRP78 and CD36, siGENOME smartpool siRNA was purchased from GE Dharmacon (M-008198-02 and L-010206-00-0005 respectively) and transfected using lipofectamine RNAiMAX as per manufacturer's protocol.
(§1) Cells were washed in phosphate-buffered saline (PBS), lysed in 4× SDS-PAGE lysis buffer and separated on 7-10% polyacrylamide gels in denaturing conditions. Gels were transferred to nitrocellulose membranes using the BioRad mini trans-blot system, blocked in 5% skim milk in tris-buffered saline (TBS) for 1 h and incubated in primary antibody overnight for 16 h at 4° C. Membranes were then exposed to horse radish peroxidase conjugated secondary antibodies and visualized using EZ-ECL chemiluminescent reagent (Froggabio). Band intensities were quantified using ImageJ software ([…]) against membranes reprobed for housekeeping proteins.
(§2) RNA purification/isolation was performed using RNeasy mini kits (Qiagen) and normalized to 2 μg RNA using a NanoDrop® spectrophotometer. Samples were then reverse transcribed into cDNA using Superscript Vilo cDNA Synthesis kit (Thermofisher Scientific). Real-time PCR was executed with Fast SYBR Green (Thermo Fisher Scientific) using the ΔΔct method on the ViiA7 real-time PCR platform (Thermofisher Scientific).
(§3) Cultured immortalized hepatocytes known to express and secrete PCSK9 (Lebeau, P., et al., 2017), including HuH7 and HepG2 cells, as well as primary mouse- and human-hepatocytes (PMH and PHH, respectively), were treated with CF for 24 h and assessed for PCSK9 expression via immunoblots and real-time PCR (FIG. 1 A to D). […] Given that sterol deprivation represents another well-established promoter of SREBP2 activation (Lebeau, P., et al., 2017), cells were also treated with CF in the presence and absence of U18666A (U18) that depletes intracellular sterols. […] Next, HepG2 cells were treated with an increasing dose of CF.

calnexin = assay: Calnexin protein expression in HuH7 cells (immunoblot); type: cell-based, human
Method: as §1
Among the many intracellular effects of CF on the cell, its ability to increase intracellular Ca^2+ levels is well-studied (Echeverri, D., et al., 2010). […] ER Ca^2+ levels were then examined in cells transfected with D1ER; a genetically-encoded ER-resident fluorescence resonance energy transfer (FRET)-based […] chameleon Ca^2+ sensor, which increases in fluorescence intensity upon Ca^2+ binding (Palmer, A. E., et al., 2004). The low-affinity Ca^2+ indicator, Mag-Fluo-4, was also utilized for the direct assessment of ER Ca^2+ and increases in fluorescence intensity upon Ca^2+ binding (Diercks, B. P., et al., 2017; Lebeau, P., et al., 2021). […] ER Ca^2+ content was also assessed indirectly with the high affinity Ca^2+ dye, fura-2-AM (FIG. 6 B). […]

[1] = system: HMGR, SREBP1, hepatocyte nuclear factor 1α; assay: mRNA expression of HMGR, SREBP1 and hepatocyte nuclear factor 1α in hepatocytes; type: cell-based, mouse
Method: as §2
Therefore, the effect of CF on TG-; induced SREBP2 activation was examined. […] SREBP2 activity was then examined at the protein level in HuH7 cells transfected with a plasmid encoding GFP driven by the sterol regulatory element (SRE-GFP; FIG. 2E to G). […] GFP expression was also visualized via immunofluorescent staining and quantified using ImageJ Software.

total secreted protein = assay: Coomassie stain of medium for total secreted protein; type: cell-based; conditions: Coomassie stain of medium of CF-treated cells
Method: as §3

[2] = 18-week-old C57BL/6J mice, CF 30 mg/kg every 24 hours for 14 days

SMILES	hepatic LDLR expression (CDN) (C57BL/6J mice; mice, 50 mg/kg, IP, 8 h)	SREBP2 and PCSK9 mRNA transcript level (PCSK9; HuH7, ryanodine 10 μM, CDN 100 μM, 2 APB 50 μM, presence or absence of TG, 24 h)	calnexin protein expression (calnexin)	PCSK9 and SREBP2 expression on ER Ca2+ depletion (PCSK9; HuH7, TG 100 nM, CPA 10 μM)	SREBP1 expression ([1]; PMH)	hepatocyte nuclear factor 1α expression ([1]; absence of TG)	HMGR expression ([1]; mouse hepatocytes)	serum Apolipoprotein B (ApoB) (C57BL/6J mice; [2])	serum PCSK9 after daily dosing (C57BL/6J mice; [2])	circulating PCSK9 levels after oral gavage (C57BL/6J mice; mice, CF 20 mg/kg oral gavage, listed as CF)	circulating PCSK9 levels (C57BL/6J mice; mice, CF 50 mg/kg IP, 8 h)	circulating triglyceride levels (C57BL/6J mice; mice, CF 50 mg/kg IP, 8 h)	time required to significantly reduce plasma PCSK9 (C57BL/6J mice; mice, time-course) [h]	hepatic expression of UPR markers / chaperones (C57BL/6J mice; mouse liver, CF 50 mg/kg, 8 h, listed as CF)	TG-induced PCSK9 expression (PCSK9; CF 200 μM with thapsigargin 100 nM, 24 h)	PCSK9 mRNA and secreted protein in presence of ActD (PCSK9; HepG2 pre-treated with actinomycin D)	PCSK9 and SREBP2 mRNA and secreted PCSK9 in presence of siGRP78 (PCSK9; HepG2 transfected with siGRP78)	PCSK9 protein and mRNA transcript levels (PCSK9; HuH7, HepG2, PMH, PHH, 24 h, listed as CF)	U18-induced PCSK9 expression (PCSK9; HuH7, CF 200 μM with U18 10 μM, 24 h)	global protein secretion (total secreted protein)
Cc1ccc2cccc(NC(=O)c3ccc(OC(C)C)cc3)c2n1 [CDN]	increased hepatic LDLR expression	blocked SREBP2 and PCSK9 at the mRNA transcript level																		
C/C=C(/C)C(=O)O[C@H]1C(C)=C2[C@H]([C@@H]1OC(=O)CCCCCCC)[C@@](C)(OC(C)=O)C[C@H](OC(=O)CCC)[C@@]1(O)[C@H]2OC(=O)[C@@]1(C)O [TG, thapsigargin]			blocked	increased PCSK9 and SREBP2 expression																
Cn1c(=O)c2c(ncn2C)n(C)c1=O [caffeine, 1,3,7-Trimethylxanthine]			induced		blocked the expression	did not yield a significant difference	blocked the expression	reduction	reduction	reduced circulating PCSK9 levels; also recorded: reduces plasma PCSK9 levels	significant reduction	significant reduction	4	reduced the expression of UPR markers; also recorded: reduces chaperone expression	attenuated PCSK9 expression	failure of CF to block PCSK9 mRNA	failed to attenuate PCSK9 and SREBP2 mRNA expression or secreted PCSK9 levels	reduced protein and mRNA transcript levels of PCSK9; also recorded: blocks PCSK9 expression	attenuated U18-induced PCSK9 expression	not affecting global protein secretion
